From patent US20230141603A1, “BENZODIAZEPINE DERIVATIVES AS GABA A GAMMA1 PAM” (Hoffmann-La Roche Inc., priority 2021, published 2023) come the findings set out here.

Broadly, the Ki is the dissociation constant of the complex between target and ligand, obtained from inhibition or displacement. The low end stands for higher affinity, the high end for lower affinity.

The target in one test is T1, h-GABAA α1β2γ1 (Homo sapiens, UniProt P14867+Q8N1C3).
T1 construct: expressed in transfected cells; host or cells: HEK293F cells (ThermoFisher R79007), membranes
T1 sequence (P14867 28-456): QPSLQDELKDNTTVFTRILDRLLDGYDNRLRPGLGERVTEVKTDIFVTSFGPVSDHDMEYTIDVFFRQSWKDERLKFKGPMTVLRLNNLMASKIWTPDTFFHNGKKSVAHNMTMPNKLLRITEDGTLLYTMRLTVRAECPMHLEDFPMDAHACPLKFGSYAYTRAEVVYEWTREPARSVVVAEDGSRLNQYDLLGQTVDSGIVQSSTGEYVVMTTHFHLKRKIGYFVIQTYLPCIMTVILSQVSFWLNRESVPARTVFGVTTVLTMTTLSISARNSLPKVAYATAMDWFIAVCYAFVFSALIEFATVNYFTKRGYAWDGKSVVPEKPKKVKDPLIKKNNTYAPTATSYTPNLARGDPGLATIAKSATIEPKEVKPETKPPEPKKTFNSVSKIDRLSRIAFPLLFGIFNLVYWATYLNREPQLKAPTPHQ
T1 sequence (P47870 25-512 partner limits assumed): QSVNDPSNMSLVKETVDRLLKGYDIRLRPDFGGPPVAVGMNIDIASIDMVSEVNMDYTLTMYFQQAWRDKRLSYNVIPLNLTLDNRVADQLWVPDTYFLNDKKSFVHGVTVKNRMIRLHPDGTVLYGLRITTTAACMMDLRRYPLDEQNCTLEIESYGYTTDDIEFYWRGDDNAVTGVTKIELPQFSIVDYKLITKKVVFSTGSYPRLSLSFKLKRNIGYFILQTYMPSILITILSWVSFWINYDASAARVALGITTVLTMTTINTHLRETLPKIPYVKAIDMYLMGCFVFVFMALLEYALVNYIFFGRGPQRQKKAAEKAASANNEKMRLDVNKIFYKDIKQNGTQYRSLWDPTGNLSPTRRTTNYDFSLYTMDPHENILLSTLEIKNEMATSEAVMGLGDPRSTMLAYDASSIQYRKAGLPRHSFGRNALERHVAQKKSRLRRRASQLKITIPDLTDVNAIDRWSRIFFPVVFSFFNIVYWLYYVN
T1 sequence (Q8N1C3 36-465): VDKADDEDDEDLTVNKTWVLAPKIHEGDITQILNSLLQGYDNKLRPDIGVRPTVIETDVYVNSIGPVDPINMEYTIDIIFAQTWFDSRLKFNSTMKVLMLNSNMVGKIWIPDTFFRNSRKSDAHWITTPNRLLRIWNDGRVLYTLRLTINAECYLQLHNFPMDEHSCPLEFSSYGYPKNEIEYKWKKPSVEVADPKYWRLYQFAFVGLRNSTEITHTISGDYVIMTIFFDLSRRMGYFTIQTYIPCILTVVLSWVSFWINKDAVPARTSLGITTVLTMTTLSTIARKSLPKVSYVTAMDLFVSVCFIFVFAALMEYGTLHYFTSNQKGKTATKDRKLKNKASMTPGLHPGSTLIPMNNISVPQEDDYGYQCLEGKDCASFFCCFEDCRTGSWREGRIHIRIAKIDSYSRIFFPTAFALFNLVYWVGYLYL
Nature of the test: Radioligand binding assay, [3H]RO7239181 competition, HEK293F membranes.

The next test concerns the target T2, h-GABAA α1β3γ2 (Homo sapiens, UniProt P14867+P18507).
T2 construct: expressed in transfected cells; host or cells: HEK293F cells, membranes
Nature of the test: Radioligand binding assay, [3H]Flumazenil competition, HEK293F membranes. The settings on record: for γ2/γ1 Selectivity Ratio: Ki α1β3γ2 (nM)/Ki α2β2γ1 (nM); for LogSel: Log[Ki α1β3γ2 (nM)/Ki α2β2γ1 (nM)]. The gist of the method:
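[3H]Flumazenil competition binding on membranes from HEK293F cells transiently expressing human α1β3γ2 receptors. Incubation to equilibrium for 1 h at 4 °C, then filtration and scintillation counting. Ki is the mean of two determinations.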

Turning to `COc1ccc2c(c1Cl)C(c1c(F)cccc1F)=NCc1nnc(C3CC3)n1-2` [Example 79, 7-chloro-1-cyclopropyl-6-(2,6-difluorophenyl)-8-methoxy-4H-[1,2,4]triazolo[4,3-a][1,4]benzodiazepine], the inhibition constant Ki at h-GABAA α1β2γ1 was 80.1 nM; on h-GABAA α1β3γ2, 914 nM. On h-GABAA α1β3γ2 (Table 1), the “γ2/γ1 Selectivity Ratio” value worked out at 17.8. This molecule also returned a LogSel on h-GABAA α1β3γ2 (Table 1) of 1.25.
Taken in the same sequence, the figures for `CO[C@H]1C[C@H](c2nnc3n2-c2ccc(Cl)c(Cl)c2C(c2c(F)cccc2F)=NC3)C1` [Example 91, trans-7,8-dichloro-6-(2,6-difluorophenyl)-1-(3-methoxycyclobutyl)-4H-[1,2,4]triazolo[4,3-a][1,4]benzodiazepine] were 51.3 nM, 1340 nM, 36.8 and 1.57.
The like results for `Fc1cccc(F)c1C1=NCc2nnc(-c3cccnn3)n2-c2ccc(Br)c(Cl)c21` [Example 104, 8-bromo-7-chloro-6-(2,6-difluorophenyl)-1-pyridazin-3-yl-4H-[1,2,4]triazolo[4,3-a][1,4]benzodiazepine] were, in that order, 4.2 nM, 89.3 nM, 38.1 and 1.58.
Take `Cc1ncc2n1-c1ccc(Cl)cc1C(c1ccccc1F)=NC2` [Midazolam, reference compound]: the Ki stood at 1150 nM at h-GABAA α1β2γ1 and 5 nM on h-GABAA α1β3γ2. The same molecule had a LogSel at h-GABAA α1β3γ2 (Table 3) of −2.2.
